The text below walks through data of US20240002374A1, “5-MEMBERED HETEROARYLAMINOSULFONAMIDES FOR TREATING CONDITIONS MEDIATED BY DEFICIENT CFTR ACTIVITY” (Genzyme Corporation, priority 2019, published 2024).

T1 sequence (P13569 with tags, fused parts or gaps DEL508-508): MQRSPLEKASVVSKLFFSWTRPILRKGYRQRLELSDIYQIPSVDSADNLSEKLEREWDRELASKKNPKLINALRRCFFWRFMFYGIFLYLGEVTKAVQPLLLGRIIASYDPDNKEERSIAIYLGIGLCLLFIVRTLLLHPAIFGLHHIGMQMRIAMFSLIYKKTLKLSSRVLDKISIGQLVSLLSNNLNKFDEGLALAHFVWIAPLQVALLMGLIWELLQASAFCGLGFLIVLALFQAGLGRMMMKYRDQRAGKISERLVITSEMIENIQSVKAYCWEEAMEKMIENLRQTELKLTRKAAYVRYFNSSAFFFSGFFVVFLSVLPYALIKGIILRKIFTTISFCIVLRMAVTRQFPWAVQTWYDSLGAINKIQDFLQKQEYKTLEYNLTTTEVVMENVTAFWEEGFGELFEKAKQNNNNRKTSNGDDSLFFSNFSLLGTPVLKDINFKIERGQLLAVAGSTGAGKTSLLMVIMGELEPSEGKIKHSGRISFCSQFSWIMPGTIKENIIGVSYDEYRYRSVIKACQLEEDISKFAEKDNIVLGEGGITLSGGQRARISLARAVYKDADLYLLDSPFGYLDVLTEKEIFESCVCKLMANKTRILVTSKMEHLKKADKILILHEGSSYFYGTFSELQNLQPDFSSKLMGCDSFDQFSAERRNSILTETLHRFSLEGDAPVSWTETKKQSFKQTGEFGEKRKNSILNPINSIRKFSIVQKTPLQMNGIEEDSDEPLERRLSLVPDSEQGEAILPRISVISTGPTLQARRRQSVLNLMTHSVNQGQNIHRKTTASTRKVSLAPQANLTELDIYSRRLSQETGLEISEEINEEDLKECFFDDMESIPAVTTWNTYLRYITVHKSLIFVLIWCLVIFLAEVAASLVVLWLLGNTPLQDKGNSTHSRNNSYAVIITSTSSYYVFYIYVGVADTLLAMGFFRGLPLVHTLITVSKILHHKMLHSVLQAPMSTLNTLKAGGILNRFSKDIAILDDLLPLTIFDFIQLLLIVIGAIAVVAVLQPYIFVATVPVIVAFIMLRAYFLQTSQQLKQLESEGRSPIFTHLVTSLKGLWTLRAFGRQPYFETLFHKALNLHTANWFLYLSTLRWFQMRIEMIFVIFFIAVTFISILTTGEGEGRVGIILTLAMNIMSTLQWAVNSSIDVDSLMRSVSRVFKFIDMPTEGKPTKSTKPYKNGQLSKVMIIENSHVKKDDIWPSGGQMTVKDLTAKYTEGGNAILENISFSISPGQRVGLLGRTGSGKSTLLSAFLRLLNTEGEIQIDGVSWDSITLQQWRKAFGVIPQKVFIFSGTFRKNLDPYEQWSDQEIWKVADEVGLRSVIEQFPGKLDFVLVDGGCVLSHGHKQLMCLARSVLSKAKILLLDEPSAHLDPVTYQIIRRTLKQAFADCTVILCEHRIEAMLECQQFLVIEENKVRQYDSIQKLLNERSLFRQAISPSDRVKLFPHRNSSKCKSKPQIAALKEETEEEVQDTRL

The experiment has as its target T1, CFTR (primary human bronchial epithelial cells from a ΔF508 homozygous CF donor, CF-HBE cells) (Homo sapiens, UniProt P13569, DEL508-508).
T1 construct: Primary human bronchial epithelial cells from a ΔF508 homozygous CF donor; host or cells: primary human bronchial epithelial cells (CF-HBE) from a ΔF508 homozygous CF donor
Put plainly: TECC24 recording of CFTR-mediated transepithelial chloride transport (TECC24 AUC fold over DMSO @ 3 μM). The experiment is classed as cell-based. Particulars: 3 uM test agent; CF-HBE cells (ΔF508 homozygous) incubated 48 h; ratio of test agent AUC of forskolin-stimulated IEQ to vehicle (DMSO) AUC. In short, it runs like this: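 ΔF508-homozygous CF-HBE cells incubated 48 h at 36.5° C with test agent (3 μM) in IL-13-containing medium, then recorded in current clamp with benzamil (10 μM), forskolin (10 μM) and bumetanide (20 μM). AUC of equivalent Cl− current between forskolin and bumetanide expressed as fold over DMSO vehicle.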
Regarding `CC(C)(C)CCOc1cccc(-c2sc(NS(=O)(=O)c3cccc(N)c3)nc2-c2ccccc2C(F)(F)F)c1` [Example 8, 3-Amino-N-[5-[3-(3,3-dimethylbutoxy)phenyl]-4-[2-(trifluoromethyl)phenyl]thiazol-2-yl]benzenesulfonamide], the “TECC AUC vs. DMSO @ 3 uM” value is on record as “A (“A” refers to AUC > 5)”.
For the molecule `Cc1cccc(C)c1-c1nc(NS(=O)(=O)c2cn(C)nc2C)sc1-c1cccc(OCC(C)(C)C(F)(F)F)c1` [Example 6, N-(4-(2,6-Dimethylphenyl)-5-(3-(3,3,3-trifluoro-2,2-dimethylpropoxy)phenyl)thiazol-2-yl)-1,3-dimethyl-1H-pyrazole-4-sulfonamide], the “TECC AUC vs. DMSO @ 3 uM” value is recorded as “B (“B” refers to AUC 2-5)”.
To `CC(Oc1cc(F)ccc1-c1nc(NS(=O)(=O)c2ccn(C)n2)sc1-c1cc(F)cc(OCCC(C)(C)C)c1)C(F)(F)F` (stereo not shown) [Example 5, N-(5-(3-(3,3-Dimethylbutoxy)-5-fluorophenyl)-4-(4-fluoro-2-((1,1,1-trifluoropropan-2-yl)oxy)phenyl)thiazol-2-yl)-1-methyl-1H-pyrazole-3-sulfonamide] belongs “B (“B” refers to AUC 2-5)”; to `Cc1cccc(C)c1-c1nc(NS(=O)(=O)c2cn(C)nc2C)sc1N1CCOC2(CCC(OC(F)(F)F)C2)C1` (stereo not shown) [Example 491, N-[4-(2,6-dimethylphenyl)-5-[3-(trifluoromethoxy)-6-oxa-9-azaspiro[4.5]decan-9-yl]-1,3-thiazol-2-yl]-1,3-dimethylpyrazole-4-sulfonamide], “B (“B” refers to AUC 2-5)”; to `CC(C)(C)CCOc1cc(F)cc(-c2sc(NS(=O)(=O)c3cccc(N)c3)nc2-c2ccc(C(F)(F)F)cc2)c1` [Example 9, 3-Amino-N-(5-(3-(3,3-dimethylbutoxy)-5-fluorophenyl)-4-(4-(trifluoromethyl)phenyl)thiazol-2-yl)benzenesulfonamide], “B (“B” refers to AUC 2-5)”.
In the case of `Cc1cccc(C)c1-c1nc(NS(=O)(=O)c2cccc(N(C)C)n2)sc1-c1cccc(OC2CCC(C)(C)C2)c1` (stereo not shown) [Example 358, 6-(dimethylamino)-N-[5-[3-(3,3-dimethylcyclopentyl)oxyphenyl]-4-(2,6-dimethylphenyl)-1,3-thiazol-2-yl]pyridine-2-sulfonamide], the “TECC AUC vs. DMSO @ 3 uM” value is “A (“A” refers to AUC > 5)”.
For the molecule `Nc1cccc(S(=O)(=O)Nc2nc(-c3ccc(C(F)(F)F)cc3)c(-c3cc(F)cc(O[C@H]4CCC(OC(F)(F)F)C4)c3)s2)c1` (single isomer, unassigned) [Example 43A], the “TECC AUC vs. DMSO @ 3 uM” value is reported as “B (“B” refers to AUC 2-5)”.
For `Cc1cccc(C)c1-c1nc(NS(=O)(=O)c2cn(C)nc2C)sc1N1C[C@H](OC(C)(C)C)C[C@H]1C` [Example 495, N-[4-(2,6-dimethylphenyl)-5-[(2R,4R)-2-methyl-4-[(2-methylpropan-2-yl)oxy]pyrrolidin-1-yl]-1,3-thiazol-2-yl]-1,3-dimethylpyrazole-4-sulfonamide] the value was “B (“B” refers to AUC 2-5)”; for `CNc1ccc(F)c(S(=O)(=O)Nc2nc(-c3c(C)cccc3C(F)(F)F)c(-c3cccc(OCCC(C)(C)C)c3)s2)c1` [Example 389, N-[5-[3-(3,3-dimethylbutoxy)phenyl]-4-[2-methyl-6-(trifluoromethyl)phenyl]-1,3-thiazol-2-yl]-2-fluoro-5-(methylamino)benzenesulfonamide], “A (“A” refers to AUC > 5)”.
In the case of `Nc1cccc(S(=O)(=O)Nc2nc(-c3ccccc3C(F)(F)F)c(-c3cccc([C@H]4CC[C@@H](OC(F)(F)F)C4)c3)s2)c1F` (single isomer, unassigned) [Example 47A1], the “TECC AUC vs. DMSO @ 3 uM” value is “C (“C” refers to AUC < 2)”.
To `Cc1cccc(C)c1-c1nc(NS(=O)(=O)c2cccc(C(F)F)c2)sc1-c1cccc(OCCC(C)(C)C)c1` [Example 22, 3-(Difluoromethyl)-N-(5-(3-(3,3-dimethylbutoxy)phenyl)-4-(2,6-dimethylphenyl)thiazol-2-yl)benzenesulfonamide] belongs “A (“A” refers to AUC > 5)”.
Take `CC(C)c1ccccc1-c1nc(NS(=O)(=O)c2cccc(N)c2F)sc1-c1cccc([C@H]2CC[C@H](OC(F)(F)F)C2)c1` [Example 48A2, 3-Amino-2-fluoro-N-(4-(2-isopropylphenyl)-5-(3-((1S,3S)-3-(trifluoromethoxy)cyclopentyl)phenyl)thiazol-2-yl)benzenesulfonamide]: the “TECC AUC vs. DMSO @ 3 uM” value was “A (“A” refers to AUC > 5)”.
As to `CNc1cccc(S(=O)(=O)Nc2nc(-c3c(C)cccc3C)c(-c3cccc(OCCC(C)(C)C)c3)s2)c1` [Example 27, N-(5-(3-(3,3-Dimethylbutoxy)phenyl)-4-(2,6-dimethylphenyl)thiazol-2-yl)-3-(methylamino)benzenesulfonamide], the “TECC AUC vs. DMSO @ 3 uM” value is reported as “A (“A” refers to AUC > 5)”.
For `Cc1cccc(OC(C)C)c1-c1nc(NS(=O)(=O)c2cccc(N(C)C)n2)sc1-c1cccc(OCCC(C)(C)C)c1` [Example 329, 6-(dimethylamino)-N-[5-[3-(3,3-dimethylbutoxy)phenyl]-4-(2-methyl-6-propan-2-yloxyphenyl)-1,3-thiazol-2-yl]pyridine-2-sulfonamide], the “TECC AUC vs. DMSO @ 3 uM” value was “A (“A” refers to AUC > 5)”.
As for `Cc1nn(C)cc1S(=O)(=O)Nc1nc(-c2ccccc2C(C)C)c(-c2cccc([C@@H]3CC[C@H](OC(F)(F)F)C3)c2)s1` [Example 46B1, N-(4-(2-Isopropylphenyl)-5-(3-((1R,3S)-3-(trifluoromethoxy)cyclopentyl)phenyl)thiazol-2-yl)-1,3-dimethyl-1H-pyrazole-4-sulfonamide], the “TECC AUC vs. DMSO @ 3 uM” value is listed as “A (“A” refers to AUC > 5)”.
To `Cc1cccc(C)c1-c1nc(NS(=O)(=O)c2cccc(N(C)C)n2)sc1-c1cc(F)cc(OCCC(C)(C)C)c1` [Example 240, 6-(dimethylamino)-N-[5-[3-(3,3-dimethylbutoxy)-5-fluorophenyl]-4-(2,6-dimethylphenyl)-1,3-thiazol-2-yl]pyridine-2-sulfonamide] belongs “A (“A” refers to AUC > 5)”.
For `CC(C)c1ccccc1-c1nc(NS(=O)(=O)c2ccnc(N)c2)sc1-c1cc(F)cc(OCCC(C)(C)C)c1` [Example 33, 2-Amino-N-(5-(3-(3,3-dimethylbutoxy)-5-fluorophenyl)-4-(2-isopropylphenyl)thiazol-2-yl)pyridine-4-sulfonamide] the value was “A (“A” refers to AUC > 5)”; for `CC(C)c1ccccc1-c1nc(NS(=O)(=O)c2cccc(N)c2F)sc1-c1cccc([C@@H]2CC[C@H](OC(F)(F)F)C2)c1` [Example 48B1, 3-Amino-2-fluoro-N-(4-(2-isopropylphenyl)-5-(3-((1R,3S)-3-(trifluoromethoxy)cyclopentyl)phenyl)thiazol-2-yl)benzenesulfonamide], “B (“B” refers to AUC 2-5)”.
As for `Cc1cccc(C)c1-c1nc(NS(=O)(=O)c2cccc(N)c2)sc1-c1cc(F)cc(OCCC(C)(C)C)c1` [Example 7, 3-Amino-N-(5-(3-(3,3-dimethylbutoxy)-5-fluorophenyl)-4-(2,6-dimethylphenyl)thiazol-2-yl)benzenesulfonamide], the “TECC AUC vs. DMSO @ 3 uM” value was “A (“A” refers to AUC > 5)”.
